“Also recorded” adds a separate entry of the source.
How the values were obtained:
human CAR [1] = biological target: T1, human CAR (Homo sapiens, UniProt Q14994); test: Northern blot of gene induction in CAR humanized mice; settings: 500 mg/kg
T1 sequence (Q14994 1-348 isoform Q14994-2): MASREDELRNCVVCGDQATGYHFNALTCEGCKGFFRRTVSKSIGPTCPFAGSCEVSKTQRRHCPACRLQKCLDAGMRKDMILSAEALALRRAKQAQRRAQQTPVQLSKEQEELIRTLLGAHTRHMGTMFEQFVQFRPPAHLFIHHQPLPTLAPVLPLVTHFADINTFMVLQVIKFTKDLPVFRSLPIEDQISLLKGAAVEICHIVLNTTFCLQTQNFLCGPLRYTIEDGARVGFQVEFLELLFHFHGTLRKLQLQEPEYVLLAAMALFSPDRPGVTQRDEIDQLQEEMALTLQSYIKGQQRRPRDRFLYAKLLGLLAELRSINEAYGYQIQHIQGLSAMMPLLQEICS
Description: CAR humanized mice (n=3) were treated with 500 mg/kg APAP or vehicle. After two hours, total liver RNA was prepared and subjected to Northern blot analysis with indicated probes.

murine CAR receptor [2] = biological target: T2, murine CAR receptor (Mus musculus, UniProt O35627); test: Ligand activity on murine CAR receptor
T2 sequence (O35627 1-358 M138L): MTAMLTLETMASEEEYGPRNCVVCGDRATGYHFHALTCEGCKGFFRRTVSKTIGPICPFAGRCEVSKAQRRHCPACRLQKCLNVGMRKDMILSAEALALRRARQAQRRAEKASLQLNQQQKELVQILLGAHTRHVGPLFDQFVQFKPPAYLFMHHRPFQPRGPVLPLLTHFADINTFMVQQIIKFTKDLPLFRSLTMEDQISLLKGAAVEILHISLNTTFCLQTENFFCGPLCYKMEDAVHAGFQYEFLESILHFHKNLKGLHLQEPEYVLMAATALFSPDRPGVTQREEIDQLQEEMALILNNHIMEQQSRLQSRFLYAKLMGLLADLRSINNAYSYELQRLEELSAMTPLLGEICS

[3] = tested on: CYP2E1, CYP1A2, CYP3A11, GSTPi; test: Northern blot of APAP metabolizing genes in liver of wild-type and CAR null mice; settings: mouse, in vivo, 500 mg/kg, 2 h
Description: CAR (+/+) or CAR (−/−) animals pretreated with phenobarbital (PB), TCPOBOP (TC), or vehicle alone were administered a 250 mg/kg dose of APAP by intraperitoneal injection (n=5–7 per treatment group) (FIG. 11A). […] Liver sections from different treatments were examined by histological staining (FIG. 11B). Liver samples from all treated animals were analyzed but only representative histology is presented. […] CAR (+/+) or CAR (−/−) animals were pretreated with PB, TCPOBOP (TC), or vehicle alone for three days (FIG. 11C). […] Liver samples treated as indicated were collected two hours after APAP and GSH levels were measured (n=5–7) (FIG. 11D).
CAR (+/+) and CAR (−/−) animals were given 250 mg/kg, 500 mg/kg, or 800 mg/kg doses of APAP, respectively (FIG. 12A). […] Total liver RNA was prepared from 500 mg/kg APAP treated CAR (+/+) and CAR (−/−) livers at 0 and 2 hours as indicated. […] The same blot was stripped and re-probed with β-actin as loading control.
For histologic examination of the treated mice, the left lobe of the livers was removed and immediately fixed in 4% formaldehyde-PBS solution, embedded in paraffin, sectioned at 5 μm, and stained with hematoxylin and eosin. Samples were examined under a light microscope. For RNA studies, total RNA was extracted using TRIzol Reagent (Invitrogen Life Technologies, Carlsbad, Calif.) according to the manufacture's instruction. Equivalent amount of RNA from 3–5 mice were pooled and 10 μg of each sample was subjected to northern blot analysis. […] Hepatic non-protein thiol was measured as an indication of hepatic GSH content. Mice were sacrificed two hours after intraperitoneal injection with APAP. […] Supernatant (0.5 ml) was mixed with 1.5 ml 0.1 mM Ellman's reagent [5,5′-dithio-bis(2-nitrobenzoic acid)] […] Absorbance was read at 412 nm using GSH solutions as quantitative standards.

[4] = tested on: wild-type and CAR null mice; settings: mouse, in vivo
Description: To rule out the possibility that the CAR knockout animals are somehow resistant to NAPQI, the metabolite was directly injected into the livers of both wild-type and CAR null mice, and serum ALT levels were increased 5 to 10 fold in both. Thus, that both increased NAPQI production and GSH depletion may contribute to xenobiotic induced APAP toxicity.

CAR [5] = biological target: T3, CAR (Mus musculus, UniProt O35627, M138L); test: Hepatoprotection after APAP (serum ALT, histology); settings: for protective effect, androstanol compared with N-acetylcysteine: wild-type mice, one and three hours after APAP 500 mg/kg, androstanol 100 mg/kg, N-acetylcysteine 1 g/kg
T3 sequence (O35627 1-358 M138L): T2 sequence (O35627 1-358 M138L)
Description: (§1) Wild-type mice (n=3 per group) were administered a 500 mg/kg dose of APAP by intraperitoneal injection.
(§2) For comparison, N-acetylcysteine (1 g/kg, purchased from Sigma and dissolved in PBS) was administered intraperitoneally to other mice.

human CAR [6] = biological target: T1, human CAR; settings: cited from earlier work
CAR [7] = test: Hepatoprotection after APAP (serum ALT, histology)
Description: as §1, §2

CAR [8] = biological target: T4, CAR (Mus musculus, UniProt O35627); test: Hepatoprotection after APAP (serum ALT, histology)
T4 sequence (O35627 1-358 M138L): T2 sequence (O35627 1-358 M138L)
Description: as §1, §2

murine CAR receptor [9] = biological target: T5, murine CAR receptor (Mus musculus, UniProt O35627, M138L); settings: cited from earlier work
T5 sequence (O35627 1-358 M138L): T2 sequence (O35627 1-358 M138L)

[10] = tested on: wild-type and CAR knockout mice; test: APAP toxicity after pretreatment with inducers (serum ALT, histology); format: in vivo, mouse; settings: mouse, in vivo
Description: CAR (+/+) or CAR (−/−) animals pretreated with phenobarbital (PB), TCPOBOP (TC), or vehicle alone were administered a 250 mg/kg dose of APAP by intraperitoneal injection (n=5–7 per treatment group) (FIG. 11A). Serum was collected and alanine aminotransferase (ALT) levels were measured after 24 hours. Liver sections from different treatments were examined by histological staining (FIG. 11B). Liver samples from all treated animals were analyzed but only representative histology is presented. […] CAR (+/+) or CAR (−/−) animals were pretreated with PB, TCPOBOP (TC), or vehicle alone for three days (FIG. 11C). […] Liver samples treated as indicated were collected two hours after APAP and GSH levels were measured (n=5–7) (FIG. 11D).
The effect of PB and the potent CAR agonist TCPOBOP on APAP toxicity was examined in wild-type and CAR knockout mice. Both strains of mice were treated with inducers or the vehicle control, followed by 250 mg/kg APAP. For these studies, mice were kept in a pathogen-free animal facility under standard 12 hour light/12 hour dark cycle and fed standard rodent chow and water ad libitum. At least five mice between 8 and 10 weeks old were used in each treatment group. For 3-day PB (100 mg/kg) treatment, mice were injected intraperitoneally three times, one injection per day. TCPOBOP (3 mg/kg) and/or APAP were injected intraperitoneally. Phenobarbital and TCPOBOP were suspended or dissolved in corn oil, and APAP was dissolved in basic PBS (pH=11). PB and APAP were purchased from Sigma (St Louis, Mo.); TCPOBOP was a gift from Dr. Stephen Safe.
For histologic examination of the treated mice, the left lobe of the livers was removed and immediately fixed in 4% formaldehyde-PBS solution, embedded in paraffin, sectioned at 5 μm, and stained with hematoxylin and eosin. Samples were examined under a light microscope. For RNA studies, total RNA was extracted using TRIzol Reagent (Invitrogen Life Technologies, Carlsbad, Calif.) according to the manufacture's instruction. Equivalent amount of RNA from 3–5 mice were pooled and 10 μg of each sample was subjected to northern blot analysis. […] Preparation of probes for CYP2B10 and CYP3A11 were described as previously (Wei et al., Nature 407:920–923, 2000 and Zelko et al., Mol Cell Biol 21:2838–2846, 2001). PCR primers used were: CYP1A2: 5′-[…]-3′ (SEQ ID NO: 19) and 5′-[…]-3′ (SEQ ID NO: 20), CYP2E1: 5′-[…]-3′ (SEQ ID NO: 21) and 5′-[…]-3′ (SEQ ID NO: 22), GSTPi: 5′-[…]-3′ (SEQ ID NO: 23) and 5′-[…]-3′ (SEQ ID NO: 24). Hepatic non-protein thiol was measured as an indication of hepatic GSH content. Mice were sacrificed two hours after intraperitoneal injection with APAP. Livers were removed and immediately homogenized in four volumes of 5% trichloroacetic acid and then centrifuged at 1,600×g for 15 minutes. Supernatant (0.5 ml) was mixed with 1.5 ml 0.1 mM Ellman's reagent [5,5′-dithio-bis(2-nitrobenzoic acid)] (Sigma, St Louis, Mo.) and allowed to stand at room temperature for 15 minutes. Absorbance was read at 412 nm using GSH solutions as quantitative standards.

PXR = biological target: T6, PXR (Mus musculus, UniProt O54915); settings: cited from earlier work
T6 sequence (O54915 1-431): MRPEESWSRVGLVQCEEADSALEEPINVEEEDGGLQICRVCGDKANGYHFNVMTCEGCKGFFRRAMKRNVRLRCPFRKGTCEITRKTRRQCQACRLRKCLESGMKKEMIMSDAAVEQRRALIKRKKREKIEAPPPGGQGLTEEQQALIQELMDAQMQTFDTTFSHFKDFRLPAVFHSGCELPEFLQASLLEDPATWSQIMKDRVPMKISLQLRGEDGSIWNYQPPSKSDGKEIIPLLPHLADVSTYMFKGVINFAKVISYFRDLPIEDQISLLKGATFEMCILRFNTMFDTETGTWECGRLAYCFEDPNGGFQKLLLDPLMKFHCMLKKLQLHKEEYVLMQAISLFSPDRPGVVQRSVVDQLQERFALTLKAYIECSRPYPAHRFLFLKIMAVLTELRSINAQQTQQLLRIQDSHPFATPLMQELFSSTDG

[11] = CAR humanized mice, two hours, densitometry

SMILES: CC(=O)Nc1ccc(O)cc1 [APAP, N-acetyl-p-aminophenol]
- activation of human CAR (human CAR [1]; CAR humanized mice): human CAR is activated by APAP
- induction of CYP1A2 mRNA (human CAR [1]; [11]): 1.8 fold
- induction of CYP3A11 mRNA (human CAR [1]; [11]): 2.4 fold
- induction of GSTPi mRNA (human CAR [1]; [11]): 1.8 fold
- expression of CYP1A2, CYP3A11 and GSTPi (human CAR [1]; humanized mice): increased expression
- CAR agonist function (murine CAR receptor [2]): neither APAP nor NAPQI functions as a CAR agonist
- induction of CYP1A2 mRNA [3]: approximately 2.8 fold
- induction of CYP3A11 mRNA [3]: ~4.4 fold
- induction of GSTPi mRNA [3]: ~3.9 fold

SMILES: CC(=O)N=C1C=CC(=O)C=C1 [NAPQI, N-acetyl-p-benzoquinone imine]
- CAR agonist function (murine CAR receptor [2]): neither APAP nor NAPQI functions as a CAR agonist
- increase of serum ALT levels [4]: 5-10 fold

SMILES: CC(=O)N[C@@H](CS)C(=O)O [N-acetylcysteine]
- protective effect, androstanol compared with N-acetylcysteine (CAR [5]): very similar

SMILES: Clc1ccccc1C(c1ccccc1)(c1ccccc1)n1ccnc1 [clotrimazole]
- activity on human CAR receptor (human CAR [6]): inverse agonist of human

SMILES: C[C@@]12CCC[C@H]1[C@@H]1CC[C@H]3C[C@H](O)CC[C@]3(C)[C@H]1CC2 [androstanol, 5α-androstan-3α-ol]
- activity on human CAR receptor (human CAR [6]): not human CAR
- hepatotoxicity, treatment after APAP (CAR [7]; CAR knockout animals, APAP 500 mg/kg, androstanol 100 mg/kg i.p.): did not block toxicity
- serum ALT, androstanol and APAP versus APAP alone (CAR [7]; CAR −/− animals): somewhat higher
- ALT levels, CAR (+/+) versus CAR (−/−) animals (CAR [7]; androstanol at one and three hours after APAP 500 mg/kg): significantly lower ALT levels
- APAP toxicity after pretreatment (CAR [8]; wild-type mice): decreases APAP toxicity
- serum ALT, treatment three hours after APAP (CAR [8]; wild-type mice relative to untreated wild-type): somewhat lower serum ALT levels
- hepatotoxicity, treatment one hour after APAP (CAR [8]; wild-type mice, APAP 500 mg/kg, androstanol 100 mg/kg i.p.): blocked hepatotoxicity; also recorded: nearly complete absence of hepatotoxicity
- protective effect, treatment five hours after APAP (CAR [5]; relative to wild-type control): no protective effect
- protective effect, androstanol compared with N-acetylcysteine (CAR [5]): very similar
- activity on murine CAR receptor (murine CAR receptor [9]): can be blocked

SMILES: CC(=O)[C@H]1[C@H](C#N)C[C@H]2[C@@H]3CC=C4C[C@@H](O)CC[C@]4(C)[C@H]3CC[C@@]21C [PCN, 5-pregnen-3b-ol-20-one-16a-carbonitrile]
- sensitivity to APAP [10]: increase in sensitivity to APAP comparable to that observed with TCPOBOP pretreatment
- PXR agonism (PXR): strong PXR agonist

— patent US7186879B2, “Screening systems and methods for identifying modulators of xenobiotic metabolism” (Baylor College of Medicine, priority 2001, dated 2007)
